Source: PubChem BioAssay AID489023 (Sanford-Burnham Center for Chemical Genomics, 2010)
Activity calls are given as the source filed them. The rule behind the calls is not given here.

Each compound was assayed on 697B cells, BCR-induced NF-kB luciferase reporter luminescence (assay: inhibitors of BCR-induced NF-kB activation, dose response, 697B cells, luciferase luminescence (AID 489023)).
With `O=C(Nc1cccc(S(=O)(=O)Nc2ccc(Cl)cc2)c1)c1ccc(Cl)nc1` the IC50 was 41.6 µM (inactive). With `CCn1c(=O)c2cc(C(=O)NC(C)C)sc2c2ccccc21` the IC50 was > 80 µM (inactive). For `COc1ccc(/C=N\NC(=O)c2sccc2C)cc1Cn1nc(C)cc1C`, the IC50 was 55.9 µM (inactive). `CCCN1C(=O)/C(=C/c2c(N3CCNC(=O)C3CC(=O)OCC)nc3c(C)cccn3c2=O)SC1=S` (stereo not given) gave an IC50 of 5.89 µM. Compound `Cc1csc(NC(=O)CCc2c(C)nc3cc(-c4ccc(Cl)cc4)nn3c2C)n1` has an IC50 of 4.77 µM. `CC1CCN(c2c(NCc3ccc(C(=O)N4c5ccccc5CC4C)cc3)c(=O)c2=O)CC1` (stereo not given) was tested, and the IC50 was > 80 µM (inactive). `COc1cccc(-c2noc(CCC(=O)NCCc3ccccc3)n2)c1` showed an IC50 of 5.65 µM. In the case of `CCCNC(=O)c1ccc(N2CCC3(CC2)CC(c2cccc(Br)c2)=NO3)c(NC(=O)c2ccc(Cl)c([N+](=O)[O-])c2)c1`, the IC50 is reported as > 80 µM (inactive). With `CCc1ccc(-c2nc(CSCC(=O)NC3CC3)c(C)o2)cc1` the IC50 was 0.41 µM. Work on `COc1ccc(/C=C2/SC(=S)N(CCCC(=O)Nc3cccc(O)c3)C2=O)cc1` yielded an IC50 of 3.88 µM. `CC1CC(C)CN(S(=O)(=O)c2ccc(C(=O)NCCCn3ccnc3)cc2)C1` (stereo not given) gave an IC50 of 5.07 µM. `COC(=O)[C@@H]1Cc2c([nH]c3ccccc23)C(C)(C)N1C(=O)CCl` showed an IC50 of 1.12 µM. `COc1ccc(OC)c(NC(=O)c2[nH]c(C)c(C(C)=O)c2C)c1` was tested, and the IC50 was > 80 µM (inactive). In the case of `COc1ccc(C(=O)Nc2cccc(NC(=O)c3ccc(OC)c(OC)c3)n2)cc1OC`, the IC50 is reported as 3.64 µM. In the case of `C=C(C)[C@@H]1CCC2(C(=O)O)CC[C@]3(C)[C@H](CC[C@@H]4[C@@]5(C)CCC(=O)C(C)(C)[C@@H]5CC[C@]43C)[C@@H]12` (stereo not given in full), the IC50 is reported as 71.6 µM (inactive). In the case of `Cn1c(=O)n(C)c2cc(NS(=O)(=O)c3ccccc3)ccc21`, the IC50 is reported as 38.3 µM (inactive). `NNC(=O)COc1ccc(-c2nccc(-c3ccc(F)cc3)n2)cc1` was tested, and the IC50 was 4.92 µM. `C[C@H]1CCC/C=C/C2C[C@H](O)CC2[C@H](O)/C=C/C(=O)O1` (stereo not given in full) was tested, and the IC50 was > 80 µM (inactive). With `O=C(CCl)Nc1ccccc1Sc1ccccc1` the IC50 was 15.9 µM. In the case of `O=C(CCCN1C(=O)/C(=C/c2ccccc2Cl)SC1=S)NNC(=O)c1ccc(Cl)cc1Cl`, the IC50 is reported as 3.1 µM. `CCn1c(=O)cc(SCC(=O)N2CCCCC2)c2ccccc21` was tested, and the IC50 was > 80 µM (inactive). With `CC(C)(C)c1ccc(-c2noc(CCC(=O)N3CCOCC3)n2)cc1` the IC50 was 51.6 µM (inactive). `CC(C)(C)c1ccc(-c2noc(CCC(=O)Nc3cccnc3)n2)cc1` was tested, and the IC50 was under 0.16 µM. `Cc1ccc(-c2cn(-c3ccccc3)c3[n+]2CCCS3)cc1` was tested, and the IC50 was > 80 µM (inactive). With `O=C(CCCN1C(=O)/C(=C/c2ccccc2Cl)SC1=S)NNC(=O)c1ccncc1` the IC50 was 25.7 µM (inactive). For `COC(=O)c1c(-c2ccc(N(C)C)cc2)sc2ccc(OC)cc12`, the IC50 was > 80 µM (inactive). For `Cc1nn(-c2ccc(N3CCCCC3)nn2)c(C)c1CCC(=O)Nc1ccccc1F`, the IC50 was > 80 µM (inactive). `CCc1ccc(/C=C2/SC(=S)N(CCC(=O)Nc3cccnc3)C2=O)cc1` gave an IC50 of 0.85 µM. For `C=CCOc1ccc(NC(=O)C(=O)NCCCn2ccnc2)cc1`, the IC50 was > 80 µM (inactive). With `C/C(=N\Nc1nc(Nc2ccccc2)nc(N2CCOCC2)n1)c1cccs1` the IC50 was 8.71 µM. With `CCCCCCn1c(-c2ccco2)nc2oc3cc(OC)ccc3c(=O)c2c1=O` the IC50 was > 80 µM (inactive). In the case of `Cc1c(CCC(=O)N2CCC(C(=O)O)(c3ccccc3)CC2)c(=O)oc2cc3oc4c(c3cc12)CCCC4`, the IC50 is reported as > 80 µM (inactive). With `Cc1cc(=O)[nH]c2c(C)cc(S(=O)(=O)N3CCCCC3)cc12` the IC50 was > 80 µM (inactive). Work on `O=C(CCCN1C(=O)S/C(=C\c2ccccc2)C1=O)NNC(=O)c1ccccc1O` yielded an IC50 of 1.64 µM. For `COc1cc(-c2nc3n(n2)C(c2ccc(F)cc2)C2=C(CCCC2=O)N3)cc(OC)c1OC` (stereo not given), the IC50 was 65.5 µM (inactive). For `Cc1ccc(C(=O)CSc2nnc(COc3ccccc3)o2)cc1`, the IC50 was > 80 µM (inactive). `CCOc1ccc(NC(=O)CCCc2cc(-c3ccc(OCC)cc3)on2)cc1` was tested, and the IC50 was 1.95 µM. With `CCCCCC/C=C/c1ccc(OC)c([C@H]2[C@H]3C=CC[C@@H](C)[C@@H]3C(=O)N2Cc2ccccc2)c1` the IC50 was > 80 µM (inactive). Work on `COc1ccc(-n2nnnc2S(=O)(=O)CC(=O)N2CCCCC2)cc1` yielded an IC50 of 0.79 µM. For `COc1ccc(/C=C2\SC(=S)N(CCC(=O)Nc3cccc(O)c3)C2=O)cc1`, the IC50 was > 80 µM (inactive). In the case of `COc1cccc(/C=C2\SC(=S)N(CCCC(=O)NC3=NCCS3)C2=O)c1`, the IC50 is reported as 56.3 µM (inactive). With `O=C(CCCN1C(=O)S/C(=C\C=C\c2ccccc2)C1=O)Nc1ccc(O)cc1` the IC50 was 2.99 µM. `O=C(Oc1cccc(/C=N/Nc2nc(Nc3ccccc3)nc(N3CCOCC3)n2)c1)c1ccco1` was tested, and the IC50 was 2.99 µM. Compound `Cc1ccc(-c2cc(C(=O)NCCCN3CCOCC3)no2)cc1` has an IC50 of 11.5 µM. With `CN(C)S(=O)(=O)c1ccc(NC(=O)N2CCN(c3ccccc3)CC2)cc1` the IC50 was > 80 µM (inactive). With `CN1C(=O)CSc2ccc(NC(=O)N3CCN(c4ccccc4)CC3)cc21` the IC50 was 74 µM (inactive). `CCOc1ccc(-n2c(-c3ccccc3)c[n+]3c2CCCCC3)cc1` was tested, and the IC50 was > 80 µM (inactive). With `CNC(=O)c1cccn(Cc2ccc(C(F)(F)F)cc2)c1=O` the IC50 was 47.9 µM (inactive). `CCOC(=O)Cc1ccc(NC(=O)c2ccc(C(C)(C)C)cc2)cc1` was tested, and the IC50 was under 0.16 µM. With `COc1ccc(CC(=O)Nc2cccc(-c3ccc4nnc(C)n4n3)c2)cc1` the IC50 was 71.7 µM (inactive).
